Literature values in US20140023718A1, “PROSTAGLANDIN-CONTAINING FAT EMULSION” (FUJIFILM Corporation, priority 2011, published 2014).

Conditions: 25° C. water

pKa | pKa1 | pKa2 | SMILES
4.63 |  |  | CCCC(=O)O [butyric acid]
 | 3.40 | 5.13 | O=C(O)CC(O)C(=O)O (centres unmarked) [malic acid]
 | 4.00 | 5.24 | O=C(O)CCC(=O)O [succinic acid]
